Results reported in PubChem BioAssay (NCI).
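Step 1: Grow cells in 96-well plates. Step 2: Expose to compound for 48 hours at 5 concentrations. Step 3: Interpolate endpoints linearly; if unreached, use highest concentration. GI50 marks 50% less growth. TGI is the concentration that stops growth completely.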

What was measured:
Assay in all cases: NCI-60 cell line screen, 48 h
U251 CNS = tested on: U251 CNS
MCF7 breast = tested on: MCF7 breast
SN12C renal = tested on: SN12C renal
PC-3 prostate = tested on: PC-3 prostate
SW-620 colon = tested on: SW-620 colon
HS 578T breast = tested on: HS 578T breast
HOP-62 NSCLC = tested on: HOP-62 NSCLC
SNB-75 CNS = tested on: SNB-75 CNS
SF-295 CNS = tested on: SF-295 CNS
NCI-H460 lung = tested on: NCI-H460 lung
OVCAR-3 ovarian = tested on: OVCAR-3 ovarian
HT29 colon = tested on: HT29 colon
A498 renal = tested on: A498 renal
HCT-116 colon = tested on: HCT-116 colon
M14 melanoma = tested on: M14 melanoma
786-0 renal = tested on: 786-0 renal
KM12 colon = tested on: KM12 colon
UACC-62 melanoma = tested on: UACC-62 melanoma
EKVX NSCLC = tested on: EKVX NSCLC
SK-MEL-28 melanoma = tested on: SK-MEL-28 melanoma
OVCAR-4 ovarian = tested on: OVCAR-4 ovarian
NCI-H226 lung = tested on: NCI-H226 lung
SF-268 CNS = tested on: SF-268 CNS
NCI/ADR-RES ovarian = tested on: NCI/ADR-RES ovarian
T-47D breast = tested on: T-47D breast
MOLT-4 leukemia = tested on: MOLT-4 leukemia
SK-OV-3 ovarian = tested on: SK-OV-3 ovarian
NCI-H23 lung = tested on: NCI-H23 lung
OVCAR-5 ovarian = tested on: OVCAR-5 ovarian
UACC-257 melanoma = tested on: UACC-257 melanoma
MDA-MB-231 breast = tested on: MDA-MB-231 breast
CCRF-CEM leukemia = tested on: CCRF-CEM leukemia
HOP-92 NSCLC = tested on: HOP-92 NSCLC
LOX IMVI melanoma = tested on: LOX IMVI melanoma
ACHN renal = tested on: ACHN renal
OVCAR-8 ovarian = tested on: OVCAR-8 ovarian
RPMI-8226 leukemia = tested on: RPMI-8226 leukemia
NCI-H522 lung = tested on: NCI-H522 lung
RXF 393 renal = tested on: RXF 393 renal
HCC-2998 colon = tested on: HCC-2998 colon
A549 NSCLC = tested on: A549 NSCLC
SK-MEL-5 melanoma = tested on: SK-MEL-5 melanoma
BT-549 breast = tested on: BT-549 breast
DU-145 prostate = tested on: DU-145 prostate
HL-60(TB) leukemia = tested on: HL-60(TB) leukemia
UO-31 renal = tested on: UO-31 renal
SF-539 CNS = tested on: SF-539 CNS
SNB-19 CNS = tested on: SNB-19 CNS
IGROV1 ovarian = tested on: IGROV1 ovarian
HCT-15 colon = tested on: HCT-15 colon
CAKI-1 renal = tested on: CAKI-1 renal
COLO 205 colon = tested on: COLO 205 colon
TK-10 renal = tested on: TK-10 renal
K-562 leukemia = tested on: K-562 leukemia
SR leukemia = tested on: SR leukemia
SK-MEL-2 melanoma = tested on: SK-MEL-2 melanoma
MALME-3M melanoma = tested on: MALME-3M melanoma

In the case of O=C1NC(=O)C(c2ccccc2Cl)=C1Nc1cccc(O)c1, the GI50 (U251 CNS) is reported as 9.32 µM, the TGI (U251 CNS) is reported as > 25 µM and the GI50 (MCF7 breast) is reported as 3.99 µM. For the same compound, the TGI (MCF7 breast) was > 20.7 µM, the GI50 (SN12C renal) was > 19.4 µM and the TGI (SN12C renal) was > 25 µM. The GI50 (PC-3 prostate) was 11.3 µM, the TGI (PC-3 prostate) was > 25 µM and the GI50 (SW-620 colon) was 1.47 µM. For the same compound, the TGI (SW-620 colon) was > 25 µM, the GI50 (HS 578T breast) was 1.82 µM and the TGI (HS 578T breast) was 17.7 µM. For the same compound, the GI50 (HOP-62 NSCLC) was 3.89 µM, the TGI (HOP-62 NSCLC) was > 25 µM and the GI50 (SNB-75 CNS) was 6.76 µM. For the same compound, the TGI (SNB-75 CNS) was > 20.2 µM, the GI50 (SF-295 CNS) was 8.32 µM and the TGI (SF-295 CNS) was > 25 µM. For the same compound, the GI50 (NCI-H460 lung) was 7.12 µM, the TGI (NCI-H460 lung) was > 25 µM and the GI50 (OVCAR-3 ovarian) was 4.95 µM. For the same compound, the TGI (OVCAR-3 ovarian) was > 25 µM, the GI50 (HT29 colon) was 2.79 µM and the TGI (HT29 colon) was > 25 µM. The GI50 (A498 renal) was 6.49 µM, the TGI (A498 renal) was > 25 µM and the GI50 (HCT-116 colon) was 7.51 µM. The TGI (HCT-116 colon) was > 25 µM, the GI50 (M14 melanoma) was > 25 µM and the TGI (M14 melanoma) was > 25 µM. The GI50 (786-0 renal) was 13.8 µM, the TGI (786-0 renal) was > 25 µM and the GI50 (KM12 colon) was 2.51 µM. For the same compound, the TGI (KM12 colon) was > 25 µM, the GI50 (UACC-62 melanoma) was 2.25 µM and the TGI (UACC-62 melanoma) was > 25 µM. For the same compound, the GI50 (EKVX NSCLC) was > 22.5 µM, the TGI (EKVX NSCLC) was > 25 µM and the GI50 (SK-MEL-28 melanoma) was > 25 µM. For the same compound, the TGI (SK-MEL-28 melanoma) was > 25 µM, the GI50 (OVCAR-4 ovarian) was 7.02 µM and the TGI (OVCAR-4 ovarian) was > 25 µM. For the same compound, the GI50 (NCI-H226 lung) was 6.19 µM, the TGI (NCI-H226 lung) was > 25 µM and the GI50 (SF-268 CNS) was 12.5 µM. The TGI (SF-268 CNS) was > 25 µM, the GI50 (NCI/ADR-RES ovarian) was 3.2 µM and the TGI (NCI/ADR-RES ovarian) was > 25 µM. For the same compound, the GI50 (T-47D breast) was > 10.4 µM, the TGI (T-47D breast) was > 25 µM and the GI50 (MOLT-4 leukemia) was > 25 µM. For the same compound, the TGI (MOLT-4 leukemia) was > 25 µM, the GI50 (SK-OV-3 ovarian) was 4.99 µM and the TGI (SK-OV-3 ovarian) was > 25 µM. The GI50 (NCI-H23 lung) was 10.5 µM, the TGI (NCI-H23 lung) was > 25 µM and the GI50 (OVCAR-5 ovarian) was > 20.5 µM. For the same compound, the TGI (OVCAR-5 ovarian) was > 25 µM, the GI50 (UACC-257 melanoma) was > 25 µM and the TGI (UACC-257 melanoma) was > 25 µM. For the same compound, the GI50 (MDA-MB-231 breast) was > 25 µM, the TGI (MDA-MB-231 breast) was > 25 µM and the GI50 (CCRF-CEM leukemia) was 7.05 µM. For the same compound, the TGI (CCRF-CEM leukemia) was > 25 µM, the GI50 (HOP-92 NSCLC) was 8.53 µM and the TGI (HOP-92 NSCLC) was > 25 µM. For the same compound, the GI50 (LOX IMVI melanoma) was 15.1 µM, the TGI (LOX IMVI melanoma) was > 25 µM and the GI50 (ACHN renal) was > 25 µM. The TGI (ACHN renal) was > 25 µM, the GI50 (OVCAR-8 ovarian) was 24.6 µM and the TGI (OVCAR-8 ovarian) was > 25 µM. For the same compound, the GI50 (RPMI-8226 leukemia) was 21.4 µM, the TGI (RPMI-8226 leukemia) was > 25 µM and the GI50 (NCI-H522 lung) was 2.17 µM. The TGI (NCI-H522 lung) was > 25 µM, the GI50 (RXF 393 renal) was 1.92 µM and the TGI (RXF 393 renal) was > 21.1 µM. The GI50 (HCC-2998 colon) was > 25 µM, the TGI (HCC-2998 colon) was > 25 µM and the GI50 (A549 NSCLC) was 11.2 µM. For the same compound, the TGI (A549 NSCLC) was > 25 µM, the GI50 (SK-MEL-5 melanoma) was 1.67 µM and the TGI (SK-MEL-5 melanoma) was > 25 µM. For the same compound, the GI50 (BT-549 breast) was 9.62 µM, the TGI (BT-549 breast) was > 25 µM and the GI50 (DU-145 prostate) was 9.29 µM. The TGI (DU-145 prostate) was > 25 µM, the GI50 (HL-60(TB) leukemia) was 4.93 µM and the TGI (HL-60(TB) leukemia) was > 25 µM. For the same compound, the GI50 (UO-31 renal) was 7.24 µM, the TGI (UO-31 renal) was > 25 µM and the GI50 (SF-539 CNS) was 8.93 µM. The TGI (SF-539 CNS) was > 25 µM, the GI50 (SNB-19 CNS) was 21.4 µM and the TGI (SNB-19 CNS) was > 25 µM. For the same compound, the GI50 (IGROV1 ovarian) was > 25 µM, the TGI (IGROV1 ovarian) was > 25 µM and the GI50 (HCT-15 colon) was 2.47 µM. For the same compound, the TGI (HCT-15 colon) was > 25 µM, the GI50 (CAKI-1 renal) was 4.41 µM and the TGI (CAKI-1 renal) was > 25 µM. The GI50 (COLO 205 colon) was 7.17 µM, the TGI (COLO 205 colon) was > 21.6 µM and the GI50 (TK-10 renal) was 10.7 µM. For the same compound, the TGI (TK-10 renal) was > 25 µM, the GI50 (K-562 leukemia) was 1.32 µM and the TGI (K-562 leukemia) was > 25 µM. The GI50 (SR leukemia) was 1.97 µM, the TGI (SR leukemia) was > 25 µM and the GI50 (SK-MEL-2 melanoma) was 1.99 µM. For the same compound, the TGI (SK-MEL-2 melanoma) was > 25 µM, the GI50 (MALME-3M melanoma) was > 25 µM and the TGI (MALME-3M melanoma) was > 25 µM.
